According to PubChem BioAssay AID248 (DTP/NCI, 2004):
Values joined by “and” are separate entries in the source; they are usually repeats but may differ in a detail not shown here. Equal values may be shown once. Inconclusive results and toxic doses are left out. Cut-off read from the data, not from the text of the source: active = T/C of 150% or more; inactive = T/C below 125%.

Test system: L1210 leukemia ip in BDF1 mice, survival T/C
Assay: NCI In Vivo Anticancer Drug Screen. Data for tumor model L1210 Leukemia (intraperitoneal) in B6D2F1 (BDF1) mice
Settings: endpoint: mean survival time, higher = longer survival
Summary of the method: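 Antitumor effect is assessed in tumor-bearing animals. Survival in the compound arm is compared with a vehicle-dosed control arm and expressed as their quotient.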

[1] = dose: 25.0 mg/kg/injection, schedule: Q04DX002 (ip), vehicle: saline
[2] = dose: 50.0 mg/kg/injection, schedule: Q04DX002 (ip), vehicle: saline
[3] = dose: 100.0 mg/kg/injection, schedule: Q04DX002 (ip), vehicle: saline
[4] = dose: 100.0 mg/kg/injection, schedule: Q01DX009 (ip), vehicle: Klucel (hydroxypropylcellulose) (HPC)
[5] = dose: 200.0 mg/kg/injection, schedule: Q01DX009 (ip), vehicle: Klucel (hydroxypropylcellulose) (HPC)
[6] = dose: 400.0 mg/kg/injection, schedule: Q01DX009 (ip), vehicle: Klucel (hydroxypropylcellulose) (HPC)
[7] = dose: 100.0 mg/kg/injection, schedule: Q04DX002 (ip), vehicle: Klucel (hydroxypropylcellulose) (HPC)
[8] = dose: 100.0 mg/kg/injection, schedule: Q04DX003 (ip), vehicle: Klucel (hydroxypropylcellulose) (HPC)
[9] = dose: 200.0 mg/kg/injection, schedule: Q04DX002 (ip), vehicle: Klucel (hydroxypropylcellulose) (HPC)
[10] = dose: 200.0 mg/kg/injection, schedule: Q04DX003 (ip), vehicle: Klucel (hydroxypropylcellulose) (HPC)
[11] = dose: 400.0 mg/kg/injection, schedule: Q04DX002 (ip), vehicle: Klucel (hydroxypropylcellulose) (HPC)
[12] = dose: 400.0 mg/kg/injection, schedule: Q04DX003 (ip), vehicle: Klucel (hydroxypropylcellulose) (HPC)
[13] = dose: 100.0 mg/kg/injection, schedule: Q01DX001 (ip), vehicle: other
[14] = dose: 200.0 mg/kg/injection, schedule: Q01DX001 (ip), vehicle: other
[15] = dose: 400.0 mg/kg/injection, schedule: Q01DX001 (ip), vehicle: other
[16] = dose: 100.0 mg/kg/injection, schedule: Q01DX009 (ip), vehicle: saline with Tween-80
[17] = dose: 100.0 mg/kg/injection, schedule: Q04DX003 (ip), vehicle: saline with Tween-80
[18] = dose: 200.0 mg/kg/injection, schedule: Q01DX009 (ip), vehicle: saline with Tween-80
[19] = dose: 200.0 mg/kg/injection, schedule: Q04DX003 (ip), vehicle: saline with Tween-80
[20] = dose: 400.0 mg/kg/injection, schedule: Q01DX009 (ip), vehicle: saline with Tween-80
[21] = dose: 400.0 mg/kg/injection, schedule: Q04DX003 (ip), vehicle: saline with Tween-80
[22] = dose: 100.0 mg/kg/injection, schedule: Q01DX001 (ip), vehicle: saline
[23] = dose: 200.0 mg/kg/injection, schedule: Q01DX001 (ip), vehicle: saline
[24] = dose: 400.0 mg/kg/injection, schedule: Q01DX001 (ip), vehicle: saline

Measured: T/C

CC(C)N(CCC(=O)CC12CC3CC(CC(C3)C1)C2)C(C)C
inactive: [1] 92 % of control | [2] 98 % of control | [3] 95 % of control and 97 % of control

O=C(C(=O)c1cccc(CC(O)(C(F)(F)F)C(F)(F)F)n1)c1cccc(CC(O)(C(F)(F)F)C(F)(F)F)n1
inactive: [4] 91 % of control | dose: 100.0 mg/kg/injection, schedule: Q04DX003 (ip), vehicle: saline 95 % of control | [5] 96 % of control | dose: 200.0 mg/kg/injection, schedule: Q04DX003 (ip), vehicle: saline 97 % of control | [6] 93 % of control | dose: 400.0 mg/kg/injection, schedule: Q04DX003 (ip), vehicle: saline 103 % of control

O=C1CC(C(c2ccccc2)c2ccccc2)CO1 (centres undefined)
inactive: dose: 100.0 mg/kg/injection, schedule: Q01DX001 (ip), vehicle: Klucel (hydroxypropylcellulose) (HPC) 104 % of control | [4] 110 % of control and 89 % of control | [7] 94 % of control and 99 % of control | [8] 94 % of control | dose: 200.0 mg/kg/injection, schedule: Q01DX001 (ip), vehicle: Klucel (hydroxypropylcellulose) (HPC) 100 % of control | [5] 113 % of control and 89 % of control | [9] 94 % of control and 96 % of control | [10] 94 % of control | dose: 400.0 mg/kg/injection, schedule: Q01DX001 (ip), vehicle: Klucel (hydroxypropylcellulose) (HPC) 98 % of control | [6] 116 % of control and 89 % of control | [11] 99 % of control and 101 % of control | [12] 95 % of control

C[n+]1c(-c2ccccc2)c2ccccc2c2ccccc21
inactive: dose: 0.78 mg/kg/injection, schedule: Q01DX009 (ip), vehicle: water 91 % of control | dose: 1.56 mg/kg/injection, schedule: Q01DX009 (ip), vehicle: water 96 % of control | dose: 1.56 mg/kg/injection, schedule: Q04DX003 (ip), vehicle: water 103 % of control | dose: 3.12 mg/kg/injection, schedule: Q01DX009 (ip), vehicle: water 93 % of control | dose: 3.12 mg/kg/injection, schedule: Q04DX003 (ip), vehicle: water 97 % of control | dose: 6.25 mg/kg/injection, schedule: Q04DX003 (ip), vehicle: water 108 % of control

Cc1ccc(N=Cc2ccccc2O)cc1.[Co]
inactive: [13] 102 % of control | [14] 98 % of control | [15] 110 % of control

O=S(=O)(Nc1cccc(C(F)(F)F)c1)c1ccccc1
inactive: [4] 106 % of control | [8] 98 % of control | [5] 107 % of control | [10] 97 % of control | [6] 101 % of control | [12] 95 % of control

O=C(O)CSCc1nc2ccccc2[nH]1
inactive: [16] 92 % of control | [17] 101 % of control | [18] 100 % of control | [19] 92 % of control | [20] 96 % of control | [21] 95 % of control

CCCC(O)(CCC)CC(=O)OCC
inactive: dose: 200.0 mg/kg/injection, schedule: Q04DX003 (ip), vehicle: saline sonified 106 % of control | dose: 400.0 mg/kg/injection, schedule: Q04DX003 (ip), vehicle: saline sonified 90 % of control

CN(N=O)C(=O)NC1C=CCCC1 (centres undefined)
inactive: dose: 12.5 mg/kg/injection, schedule: Q01DX001 (ip), vehicle: other 104 % of control | dose: 25.0 mg/kg/injection, schedule: Q01DX001 (ip), vehicle: other 95 % of control | dose: 50.0 mg/kg/injection, schedule: Q01DX001 (ip), vehicle: other 97 % of control | [13] 96 % of control | [14] 104 % of control

CCC(C)C(C=NCC(CCN(CC)CC)(c1cccc2ccccc12)C(C)CC)(CCN(CC)CC)c1cccc2ccccc12 (centres undefined)
inactive: dose: 100.0 mg/kg/injection, schedule: Q04DX002 (ip), vehicle: saline with Tween-80 94 % of control | dose: 200.0 mg/kg/injection, schedule: Q04DX002 (ip), vehicle: saline with Tween-80 97 % of control | dose: 400.0 mg/kg/injection, schedule: Q04DX002 (ip), vehicle: saline with Tween-80 87 % of control

CNCCc1ccc(OC)c(OC)c1
inactive: [1] 104 % of control | [2] 107 % of control | [3] 96 % of control

COc1cc(NC(=O)Nc2cc(OC)c(OC)c(OC)c2)cc(OC)c1OC
inactive: [8] 96 % of control | [17] 93 % of control | [10] 98 % of control | [12] 91 % of control

O=C(O)C1CCCN1Cc1cc2ccccc2c2ccccc12 (centres undefined)
inactive: dose: 50.0 mg/kg/injection, schedule: Q01DX001 (ip), vehicle: saline 112 % of control | [22] 96 % of control | [23] 96 % of control | [24] 96 % of control

CSCCCNC(=O)NS(=O)(=O)c1ccc(C)cc1
inactive: [17] 97 % of control | [19] 100 % of control | [21] 97 % of control

CC(F)C(Br)C(=O)O (centres undefined)
inactive: [3] 90 % of control | dose: 200.0 mg/kg/injection, schedule: Q04DX002 (ip), vehicle: saline 90 % of control

CCCNC(=O)Oc1ccc2ccccc2c1
inactive: [13] 103 % of control | dose: 100.0 mg/kg/injection, schedule: Q01DX009 (ip), vehicle: other 93 % of control and 100 % of control | [7] 95 % of control | dose: 100.0 mg/kg/injection, schedule: Q04DX002 (ip), vehicle: other 100 % of control and 101 % of control | [14] 94 % of control | dose: 200.0 mg/kg/injection, schedule: Q01DX009 (ip), vehicle: other 94 % of control and 116 % of control | [9] 103 % of control | dose: 200.0 mg/kg/injection, schedule: Q04DX002 (ip), vehicle: other 93 % of control and 95 % of control | [15] 101 % of control | dose: 400.0 mg/kg/injection, schedule: Q01DX009 (ip), vehicle: other 93 % of control and 94 % of control | [11] 100 % of control | dose: 400.0 mg/kg/injection, schedule: Q04DX002 (ip), vehicle: other 93 % of control and 96 % of control

COC1OC2COc3ccccc3OC2C(NC#N)C1O (centres undefined)
inactive: [16] 97 % of control | [18] 96 % of control | [20] 89 % of control

CC[n+]1ccc(/C=C\c2cccc([N+](=O)[O-])c2)cc1
inactive: dose: 25.0 mg/kg/injection, schedule: Q01DX009 (ip), vehicle: Klucel (hydroxypropylcellulose) (HPC) 91 % of control | dose: 50.0 mg/kg/injection, schedule: Q01DX009 (ip), vehicle: Klucel (hydroxypropylcellulose) (HPC) 91 % of control | [4] 98 % of control | [8] 93 % of control

O=C(NN=c1c2ccccc2sc2ccccc12)c1cccc2ccccc12
inactive: [22] 103 % of control | [23] 105 % of control | [24] 97 % of control

Clc1ccc2c(OCCN3CC3)ccnc2c1
inactive: dose: 100.0 mg/kg/injection, schedule: Q01DX001 (ip), vehicle: carboxymethylcellulose (CMC) 102 % of control

O=[N+]([O-])c1ccc(SCN(CSc2ccc([N+](=O)[O-])cc2)Cc2ccccc2)cc1
inactive: [22] 96 % of control | [23] 102 % of control | [24] 90 % of control
